Results on 25 compounds are retold here after patent US20120245161A1 (SANOFI, priority 2009, published 2012).

Where “and” joins values, the source holds several entries; their conditions need not be identical. Identical values can stand only once. Counter-ions that a name gives are not always drawn. Like-named read-outs stand apart in the source and are kept apart here.

This assay addresses T1, recombinant human beta tryptase (Homo sapiens, UniProt P20231).
T1 construct: made in house; host or cells: yeast cells
The assay can be described thus: beta-Tryptase inhibition, chromogenic enzyme assay (substrate S2366, read at 405 nm). The assay is classed as biochemical. The text has this: Inhibition of this catalytic activity may be measured by the in vitro enzyme assay and the cellular assay.
Tryptase inhibition activity is confirmed using either isolated human lung tryptase or recombinant human beta tryptase expressed in yeast cells. Essentially equivalent results are obtained using isolated native enzyme or the expressed enzyme. The assay procedure employs a 96 well microplate (Costar 3590) using L-pyroglutamyl-L-prolyl-L-arginine-para-nitroanilide (S2366: Quadratech) as substrate (essentially as described by McEuen et. al. Biochem Pharm, 1996, 52, pages 331-340). Assays are performed at room temperature using 0.5 mM substrate (2×Km) and the microplate is read on a microplate reader (Beckman Biomek Plate reader) at 405 nm wavelength.
Materials and Methods for Tryptase primary screen (Chromogenic assay)
S2366 (Stock solutions of 2.5 mM).
Purified recombinant beta Tryptase Stocks of 310 μg/mL. Protocol (Single point determination) • Add 60 μL of diluted substrate (final concentration of 500 μM in assay buffer) to each well • Add compound in duplicates, final concentration of 20 volume 20 • Add enzyme at a final concentration of 50 ng/mL in a volume of 20 • Total volume for each well is 100 • Agitate briefly to mix and incubate at room temp in the dark for 30 minutes • Read absorbencies at […] Each plate has the following controls: • Totals: 60 μL of substrate, 20 μL of buffer (with 0.2% final concentration of DMSO), • 20 μL of enzyme Non-specific: 60 μL of substrate, 40 μL of buffer (with 0.2% DMSO) Totals: 60 μL of substrate, 20 μL of buffer (No DMSO), 20 μL of enzyme Non-specific: 60 μL of substrate, 40 μL of buffer (No DMSO) Protocol (IC50 and Ki determination)
The protocol is essentially the same as above except that the compound is added in duplicates at the following final concentrations: 0.01, 0.03, 0.1, 0.3, 1, 3, 10 μM (All dilutions carried out manually). For every assay, whether single point or IC50 determination, a standard compound is used to derive IC50 for comparison. From the IC50 value, the Ki can be calculated using the following formula: Ki=IC50/(1+[Substrate]/Km).

[1] abbreviates: Ki calculated from IC50: Ki=IC50/(1+[Substrate]/Km), 0.5 mM substrate, room temperature, read-out: Tryptase Ki.
[2] abbreviates: Tryptase Ki (nM), Ki calculated from IC50: Ki=IC50/(1+[Substrate]/Km), 0.5 mM substrate, room temperature.

T1 sequence (P20231 31-275): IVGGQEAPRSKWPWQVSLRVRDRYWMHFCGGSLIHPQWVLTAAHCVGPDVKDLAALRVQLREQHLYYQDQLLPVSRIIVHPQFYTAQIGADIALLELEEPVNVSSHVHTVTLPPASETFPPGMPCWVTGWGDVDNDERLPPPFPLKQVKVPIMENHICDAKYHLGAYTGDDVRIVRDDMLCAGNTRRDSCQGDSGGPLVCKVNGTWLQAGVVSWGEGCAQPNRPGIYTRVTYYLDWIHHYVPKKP

The term Ki denotes a dissociation constant, usually derived from enzyme kinetics or from competition with a known ligand. `COCCn1cc(C(=O)N2CCC(c3cc(CN)ccc3F)CC2)c2c(-c3cncc(Cl)c3)cccc21` [Example 65, [4-(5-Aminomethyl-2-fluoro-phenyl)-piperidin-1-yl]-[4-(5-chloro-pyridin-3-yl)-1-(2-methoxy-ethyl)-1H-indol-3-yl]-methanone dihydrochloride]: under setting [1], the inhibition constant (Ki) was 11 nM.

In the case of `COCCn1cc(C(=O)N2CCC(c3cc(CN)ccc3F)CC2)c2c(Br)cccc21` [Example 48, [4-(5-Aminomethyl-2-fluoro-phenyl)-piperidin-1-yl]-[4-bromo-1-(2-methoxy-ethyl)-1H-indol-3-yl]-methanone hydrochloride], under setting [2], the Ki is 125 nM.

`COCCn1cc(C(=O)N2CCC(c3cc(CN)ccc3F)CC2)c2cccc(C(F)(F)F)c21` [Example 11, [4-(5-Aminomethyl-2-fluoro-phenyl)-piperidin-1-yl]-[1-(2-methoxy-ethyl)-7-trifluoromethyl-1H-indol-3-yl]-methanone hydrochloride]: the Ki under setting [2] was 56 nM.

With `COCCn1cc(C(=O)N2CCC(c3cc(CN)ccc3F)CC2)c2c(OC)cccc21` [Example 47, [4-(5-Aminomethyl-2-fluoro-phenyl)-piperidin-1-yl]-[4-methoxy-1-(2-methoxy-ethyl)-1H-indol-3-yl]-methanone hydrochloride], under setting [2], the Ki is 56 nM and 59 nM.

In the case of `COCCn1cc(C(=O)N2CCC(c3cc(CN)ccc3OCC(=O)N(C)C)CC2)c2cccc(C)c21` [Example 25, 2-(4-Aminomethyl-2-{1-[1-(2-methoxy-ethyl)-7-methyl-1H-indole-3-carbonyl]-piperidin-4-yl}-phenoxy)-N,N-dimethyl-acetamide hydrochloride], the inhibitory constant (Ki) under setting [2] was 672 nM. Take `COCCn1cc(C(=O)N2CCC(c3cc(CN)ccc3F)CC2)c2c(NS(=O)(=O)c3cccnc3)cccc21` [Example 106, Pyridine-3-sulfonic acid [3-[4-(5-aminomethyl-2-fluoro-phenyl)-piperidine-1-carbonyl]-1-(2-methoxy-ethyl)-1H-indol-4-yl]-amide hydrochloride]: the Ki under setting [2] was 149 nM. Take `COCCn1cc(C(=O)N2CCC(c3cc(F)cc(CN)c3)CC2)c2cccc(C)c21` [Example 116, [4-(5-Aminomethyl-3-fluoro-phenyl)-piperidin-1-yl]-[1-(2-methoxy-ethyl)-7-methyl-1H-indol-3-yl]-methanone hydrochloride]: under setting [2], the Ki was 746 nM.

As for `COCCn1cc(C(=O)N2CCC(c3cc(CN)ccc3F)CC2)c2cccc(OC(F)F)c21` [Example 14, [4-(5-Aminomethyl-2-fluoro-phenyl)-piperidin-1-yl]-[7-difluoromethoxy-1-(2-methoxy-ethyl)-1H-indol-3-yl]-methanone hydrochloride], the Ki under setting [2] is 83 nM. With `COCCn1cc(C(=O)N2CCC(c3cc(CN)ccc3F)CC2)c2c(NC(=O)c3cncnc3)cccc21` [Example 102, Pyrimidine-5-carboxylic acid [3-[4-(5-aminomethyl-2-fluoro-phenyl)-piperidine-1-carbonyl]-1-(2-methoxy-ethyl)-1H-indol-4-yl]-amide hydrochloride], the Ki under setting [2] was 22 nM. As to `COCCn1cc(C(=O)N2CCC(c3cc(CN)ccc3F)CC2)c2c(NS(=O)(=O)N(C)C)cccc21` [Example 104, Dimethylamino-1-sulfonic acid [3-[4-(5-aminomethyl-2-fluoro-phenyl)-piperidine-1-carbonyl]-1-(2-methoxy-ethyl)-1H-indol-4-yl]-amide], the inhibition constant Ki under setting [2] was 204 nM. Still for that read-out and setting: the figure for `COCCn1cc(C(=O)N2CCC(c3cc(CN)ccc3F)CC2)c2c(NC(=O)c3ccno3)cccc21` [Example 103, Isoxazole-5-carboxylic acid [3-[4-(5-aminomethyl-2-fluoro-phenyl)-piperidine-1-carbonyl]-1-(2-methoxy-ethyl)-1H-indol-4-yl]-amide hydrochloride] is 41 nM. Turning to `COCCn1cc(C(=O)N2CCC(c3cc(CN)ccc3F)CC2)c2c(-c3cc(Cl)cc(Cl)c3)cccc21` [Example 66, 4-(5-Aminomethyl-2-fluoro-phenyl)-piperidin-1-yl]-[4-(3,5-dichloro-phenyl)-1-(2-methoxy-ethyl)-1H-indol-3-yl]-methanone hydrochloride], the inhibitory constant (Ki) under setting [2] was 164 nM.

`NCc1ccc(F)c(C2CCN(C(=O)c3cn(CCOC(F)(F)F)c4ccccc34)CC2)c1` [Example 81, hydrochloride]: the Ki under setting [2] is 224 nM. Turning to `COCCn1cc(C(=O)N2CCC(c3cc(CN)ccc3F)CC2)c2c(-c3ccnn3C)cccc21` [Example 89, [4-(5-Aminomethyl-2-fluoro-phenyl)-piperidin-1-yl]-[1-(2-methoxy-ethyl)-4-(2-methyl-2H-pyrazol-3-yl)-1H-indol-3-yl]-methanone dihydrochloride], the inhibitory constant (Ki) under setting [1] was 11 nM. For `CCCCS(=O)(=O)Nc1cccc2c1c(C(=O)N1CCC(c3cc(CN)ccc3F)CC1)cn2CCOC` [Example 107, Butane-1-sulfonic acid [3-[4-(5-aminomethyl-2-fluoro-phenyl)-piperidine-1-carbonyl]-1-(2-methoxy-ethyl)-1H-indol-4-yl]-amide hydrochloride], the Ki under setting [2] is 315 nM. The same measure, in the same setting: the figure for `NCc1ccc(F)c(C2CCN(C(=O)c3cn4c5c(cccc35)OCC4)CC2)c1` [Example 49, [4-(5-Aminomethyl-2-fluoro-phenyl)-piperidin-1-yl]-(2,3-dihydro-pyrrolo[1,2,3-de]-1,4-benzoxazin-6-yl)-methanone hydrochloride] is 291 nM. `COCCn1cc(C(=O)N2CCC(c3cc(CN)ccc3OCC(=O)O)CC2)c2cccc(C)c21` [Example 33, (4-Aminomethyl-2-{1-[1-(2-methoxy-ethyl)-7-methyl-1H-indole-3-carbonyl]-piperidin-4-yl}-phenoxy)-acetic acid hydrochloride]: the Ki (Tryptase Ki, cell prints its own unit uM under a head in nM) is > 10000 nM. As to `CCCCn1cc(C(=O)N2CCC(c3cc(CN)ccc3F)CC2)c2c(OC)cccc21` [Example 46, [4-(5-Aminomethyl-2-fluoro-phenyl)-piperidin-1-yl]-(1-butyl-4-methoxy-1H-indol-3-yl)-methanone hydrochloride], the Ki under setting [2] was 94 nM.

Consider `COCCn1cc(C(=O)N2CCC(c3cc(CN)ccc3F)CC2)c2c(C(=O)N(C)C)cccc21` [Example 91, 3-[4-(5-Aminomethyl-2-fluoro-phenyl)-piperidine-1-carbonyl]-1-(2-methoxy-ethyl)-1H-indol-4-carboxylic acid dimethylamide hydrochloride], for which the Ki under setting [2] was 20 nM; the inhibitory constant (Ki) (Tryptase Ki (nM), additional value in parentheses tagged "719" (code not explained)) was 54 nM; the Ki (Tryptase Ki (nM), additional value in parentheses tagged "8923" (code not explained)) amounted to 28 nM.

Consider `Cc1cccc2c(C(=O)N3CCC(c4cc(CN)ccc4F)CC3)cn(CCN3CCCC3)c12` [Example 13, [4-(5-Aminomethyl-2-fluoro-phenyl)-piperidin-1-yl]-[7-methyl-1-(2-pyrrolidin-1-yl-ethyl)-1H-indol-3-yl]-methanone dihydrochloride], for which the inhibition constant (Ki) under setting [1] is 75 nM.

Take `CCCCn1cc(C(=O)N2CCC(c3cc(CN)ccc3F)CC2)c2cccc(OC(F)(F)F)c21` [Example 43, [4-(5-Aminomethyl-2-fluoro-phenyl)-piperidin-1-yl]-(1-butyl-7-trifluoromethoxy-1H-indol-3-yl)-methanone hydrochloride]: under setting [2], the Ki was 850 nM. Turning to `COCCn1cc(C(=O)N2CCC(c3cc(CN)c(F)cc3F)CC2)c2cccc(C)c21` [Example 111, [4-(5-Aminomethyl-2,4-difluoro-phenyl)-piperidin-1-yl]-[1-(2-methoxy-ethyl)-7-methyl-1H-indol-3-yl]-methanone hydrochloride], under setting [2], the Ki is 1020 nM. Regarding `COCCn1cc(C(=O)N2CCC(c3cc(CN)ccc3F)CC2)c2cccc(C3CCC3)c21` [Example 19, [4-(5-Aminomethyl-2-fluoro-phenyl)-piperidin-1-yl]-[7-cyclobutyl-1-(2-methoxy-ethyl)-1H-indol-3-yl]-methanone hydrochloride], the Ki under setting [2] was 94 nM. `NCc1ccc(F)c(C2CCN(C(=O)c3cn(CCOC(F)(F)F)c4c(Cl)cccc34)CC2)c1` [Example 87, hydrochloride]: the Ki under setting [2] was 207 nM.

Consider `COCCn1cc(C(=O)N2CCC(c3cccc(CN)n3)CC2)c2cccc(C)c21` [Example 113, (6-Aminomethyl-3′,4′,5′,6′-tetrahydro-2′H-[2,4]bipyridinyl-1′-yl)-[1-(2-methoxy-ethyl)-7-methyl-1H-indol-3-yl]-methanone dihydrochloride], for which, under setting [1], the inhibition constant Ki was 656 nM.
